Assay results published in patent publication US20220167645A1, “METHODS OF IMPROVING FISH FEED CONVERSION RATE AND SURVIVAL” (AQUINOVO LTD., priority 2019, published 2022).
Where “and” joins values, the source holds several entries; their conditions need not be identical. Identical values can stand only once. Numbered stars: 1 amine (or outer) side, 2 acyl side, 3 side chain; on linkers, the order of the positions; unused ones are H or OH. Square brackets hold non-standard residues; d marks the D form. Suc = O=C(CCC(=O)[*:2])[*:1]; NMeV = CN[C@H](C(=O)O)C(C)C; βAla = NCCC(=O)O

Legend:
Tilapia fish [1] = assay: Experiment #1: tilapia fed AN6-coated feed in two phases (growth, biomass, mortality, FCR); type: in vivo
Procedure: MeM (powder, manufactured by Bern Aqua), Nanolis P1, P2 (pellet sizes of 0.8-1 mm, 1-1.5 mm, respectively, manufactured by Ocialis) and Tilaphi 1, 2 & 3 (pellet sizes of 1-1.5 mm, 2 mm, 3-5.5 mm, respectively, manufactured by Ocialis) were used as basic regular feed. The basic feed was coated according to the following general procedure: 9 ml or 3 ml of Tris-HCl solution (50 mM, pH=8.8) were diluted to 60 ml with distilled H2O. For AN6-containing feed preparation, desired amounts of AN6 peptide (a TK antagonist having the sequence Succ-Asp-Ser-D-Trp—N(Me)Val-βAla-Leu-Met-NH2, SEQ ID NO. 6) were dissolved in the Tris-HCl solution. Then, each of the various solutions was mixed with 3 Kg of basic feed pellets using an electric mixer. The peptide-feed mixtures where then dried either in oven at 40° C. for 24 hours or in drying drum for few hours to form coated pellets. The total amount of each feed was 3 Kg.
Tilapia fish (n=3600) have been raised from age 10 to 106 days post-hatch (dph) in indoor tanks kept under artificial lightening (12 h light; 12 h dark), and then transferred to cages in ponds for 160 days (total 8-9 months). The fish were fed to apparent satiation 2-4 times a day, for about 90 days (10-106 dph, Phase 1), either with regular feed (Feed A, Group A, n=600 in 3 repeats) or with feed coated with AN6 peptide solution in a ratio of 10 mg AN6/Kg feed (10 ppm, Feed C, Group B, n=600 in 3 repeats). In the second phase, fish in group B were fed for 50 days (207-257 dph, Phase 2) with feed coated with AN6 peptide solution, in a ratio of 30 mg AN6/Kg feed (30 ppm, Feed D, Group B). Between days 107 and 206 the fish received control feed (feed A).
During the experiment period, the average fish weight was measured, and the daily growth rate was calculated by dividing the average weight gained in each measuring period by the number of days since the last measurement. […] This effect was also evident in the daily growth rate (FIG. 1, experiment #1). The relatively low growth rate measured in the initial phase of this experiment probably stemmed from high stocking density in tanks system in the initial period (Phase 1, Table 2, until day 106 post-hatch). This growth restriction was fully compensated in the larger cages in ponds (178 dph) where stocking density was much lower (from 106 dph, <10 Kg fish/m3).
During the experiments described above, dead fish were removed from tanks before each feeding, and then counted and weighed. Dead fish were not replaced after the beginning of the experiment. In the cage systems, in which dead fish are undetectable, actual mortality was estimated by the difference between initial and final count.
During the experiment described in example 2 (experiment #1), the fish were exposed to high stocking densities in indoor tanks (13-130 kg/m^3, 83-106 dph, Table 2, FIG. 7). High stocking density is known as a major fish stressor resulting, inter alia, in chronic increase in Cortisol levels, reduced growth, changes in behavior and inhibition of immune performance. Although mortality in these tanks was not high, a significant increase in mortality was observed following fish transfer to the pond (FIG. 7, 17.5%±2.4 mortality, x±SE).
In order to determine the efficiency of feed conversion into fish substance in experiments (#1, #2, #3), FCR values which reflect the amount of feed needed to grow a kilogram fish, were calculated for each period and for the entire fish growth period. In order to determine the amount of consumed feed, the amount of feed provided was measured daily for each tank and the leftovers were collected, weighted and subtracted from the total amount of feed. Dead fish were removed every day before each feeding and then counted and weighed for accurate calculation of feed intake and FCR. […]

[2] = AN6 half-life in blood and residual peptide in muscle and plasma; details: in vivo
[3] = system: TK receptors (tac1, tac2, tac3); assay: TK receptor mRNA expression following AN6 treatment; type: in vivo; details: different parts of the gut and skin
Tilapia fish [4] = assay: Experiment #3: tilapia fed AN6-coated feed, treatment schedules 1 to 8 (survival, weight, length, size distribution, FCR); type: in vivo; details: 10 mg AN6/Kg feed from 10 dph for 90 days; D279; compared to control
[5] = 10 mg AN6/Kg feed 10-106 dph, first 200 days of experiment, vs control

Succ-Asp-Ser- D-Trp -N(Me)Val-βAla-Leu-Met-NH2 (Suc-DS[dW][NMeV][βAla]LM-NH2; SMILES CSCC[C@H](NC(=O)[C@H](CC(C)C)NC(=O)CCNC(=O)[C@H](C(C)C)N(C)C(=O)[C@@H](Cc1c[nH]c2ccccc12)NC(=O)[C@H](CO)NC(=O)[C@H](CC(=O)O)NC(=O)CCC(=O)O)C(N)=O) [AN6]
daily growth rate (Tilapia fish [1]; [5]): no differences
fish average weight (Tilapia fish [1]; [5]): no differences
FCR and growth performance (Tilapia fish [1]; 10 and 30 mg AN6/Kg feed (experiment #1)): both improved FCR and growth performance
number of fish in the upper 6.5th decile (Tilapia fish [1]; AN6 treatment group (control 6%)): 12%
number of fish in the lower 2th decile (Tilapia fish [1]; AN6 treatment group (control 9%)): 7%
mortality following fish transfer to the pond (x±SE) (Tilapia fish [1]; after high stocking density in tanks, control 17.5%±2.4, FIG. 7): 10.5%±1.8
increased total biomass (Tilapia fish [1]; experiment #1, FIG. 3A, vs control): +18%
reduction of fish mortality as compared to the control groups (Tilapia fish [1]; in the pond, FIG. 7): 8.5%
weight gained normalized according to the initial body weight, difference compared to the control group (Tilapia fish [1]; second phase of the experiment (FIG. 2A)): 6% and 9%
cleared from blood [2]: ~4.5 min
half-life time in blood [2]: very short
peptide residual in muscle and blood after treatment [2]: no peptide residual is detected
residual peptide in muscle and plasma following treatment [2]: non residual peptide was observed
expression of all TK receptors (tac1, tac2, tac3) [3]: altered
increase in average fish weight (Tilapia fish [4]): +3.89%
